Results: patent publication US20250213701A1, “MEDICAMENT FOR TREATING HUMAN TUMOR BASED ON ERF3A-TARGETING PROTEOLYSIS MECHANISM” (SUZHOU DEGEN BIO-MEDICAL CO., LTD., priority 2022, published 2025)

How the values were obtained:
Format in all cases: cell-based, human
VCaP cells = experiment: Anti-proliferative toxicity against prostate cancer cell line Vcap (CCK8); settings: 3 days, CCK8
Procedure: (§1) Example 82: Detection of Anti-Proliferative Toxicity Against Prostate Cancer Cell Lines Vcap, 22Rv1, and PC-3
(§2) Vcap cells (purchased from the Cell Bank of the Chinese Academy of Sciences, Cat. No. SCSP-5034) were subcultured in a culture medium (DMEM medium+1% penicillin-streptomycin dual-antibiotic solution+10% fetal bovine serum) in an incubator at 5% carbon dioxide and 37° C. 22Rv1 cells (purchased from the Cell Bank of the Chinese Academy of Sciences, Cat. No. TCHu100) were subcultured in a culture medium (RPMI-1640 medium+1% penicillin-streptomycin dual-antibiotic solution+10% fetal bovine serum) in an incubator at 5% carbon dioxide and 37° C.
VCap cells were seeded at 20000 cells/well (90 μL) on a 96-well plate and cultured for 72 h. The original medium was removed, and a new medium of 90 μL was added.
(§3) 10 mM compound stock solutions were prepared in DMSO.
For VCap cells, the compound stock solution was diluted with DMSO to give DMSO solutions 1-10 at concentrations of 0 μM, 80 μM, 16 μM, 3.2 μM, 1.5 μM, 0.5 μM, 0.15 μM, 0.05 μM, 0.025 μM, and 0.0005 μM.
For Vcap cells, 2 μL of each of the above solutions 1-10 was added to 98 μL of Vcap medium to give mixed solutions 20-29 of the compound and the medium.
For Vcap cells, 10 μL of each of the above solutions 20-29 was added to the above cell seed solution to give a total volume of 100 μL (90 μL+10 μL), where the concentrations of the compound in wells were 0 μM, 0.16 μM, 0.032 μM, 0.006 μM, 0.003 μM, 0.001 μM, 0.0003 μM, 0.0001 μM, 0.00005 μM, and 0.00001 μM. All concentrations were in triplicate.
(§4) After the above-treated cells were cultured for 3 days, 10 μL of the CCK8 solution (DOJINDO, Cat. No. PF725) was added to each well. The plate was incubated in an incubator at 37° C. for 1-4 h and then detected on a microplate reader for the reading at 450 nm.

PC-3 cells = experiment: Anti-proliferative toxicity against prostate cancer cell line PC-3 (CCK8); settings: 3 days
Procedure: as §1
PC-3 cells (purchased from the Cell Bank of the Chinese Academy of Sciences, Cat. No. SCSP-532) were subcultured in a culture medium (F12K medium+1% penicillin-streptomycin dual-antibiotic solution+10% fetal bovine serum) in an incubator at 5% carbon dioxide and 37° C.
PC-3 cells were seeded at 4000 cells/well (90 μL) on a 96-well plate and cultured for 24 h.
as §3
(§5) For 22Rv1 cells and PC-3 cells, the compound stock solution was diluted with DMSO to give DMSO solutions 11-19 at concentrations of 0 μM, 500 μM, 100 μM, 20 μM, 4 μM, 0.8 μM, 0.16 μM, 0.032 μM, 0.0064 μM.
For PC-3 cells, 2 μL of each of the above solutions 11-19 was added to 98 μL of PC-3 medium to give mixed solutions 39-47 of the compound and the medium.
(§6) For 22Rv1 and PC-3 cells, 10 μL of each of the above solutions 30-38 or 39-47 was added to the above cell seed solution to give a total volume of 100 μL (90 μL+10 μL), where the concentrations of the compound in wells were 0 μM, 1.0 μM, 0.2 μM, 0.04 μM, 0.008 μM, 0.0016 μM, 0.00032 μM, 0.00006 μM, and 0.00001 μM. All concentrations were in triplicate.
as §4

22Rv1 cells = experiment: Anti-proliferative toxicity against prostate cancer cell line 22Rv1 (CCK8); settings: 3 days, CCK8
Procedure: as §1, §2
22Rv1 cells were seeded at 5000 cells/well (90 μL) on a 96-well plate and cultured for 48 h.
as §3, §5
For 22Rv1 cells, 2 μL of each of the above solutions 11-19 was added to 98 μL of 22Rv1 medium to give mixed solutions 30-38 of the compound and the medium.
as §6, §4

Molecule | IC50 (VCaP cells; Homo sapiens, 72 h) [µM] | IC50 (PC-3 cells; Homo sapiens, 72 h) [µM] | IC50 (22Rv1 cells; Homo sapiens, 72 h) [µM] | IC50 (VCaP cells) [µM] | IC50 (PC-3 cells) [µM] | IC50 (22Rv1 cells) [µM]
C[C@]12C=CC(=O)N[C@@H]1CC[C@@H]1[C@@H]2CC[C@]2(C)[C@@H](C(=O)Nc3cccc(OCCCNc4cccc5c4CN(C4CCC(=O)NC4=O)C5=O)c3)CC[C@@H]12 (stereo partly drawn) [C41, N-(3-((3-((4-(2-(3-(2,6-dioxopiperidine))-1-oxo-2,3-dihydro-1H-isoindol))amino)propyl)oxy)phenyl)-3-oxo-4-aza-5α-androst-1-ene-17β-carboxamide] | 0.0001 to 0.01 | > 1 | 0.0001 to 0.01 | – | – | –
C[C@]12C=CC(=O)N[C@@H]1CC[C@@H]1[C@@H]2CC[C@]2(C)[C@@H](C(=O)Nc3ccc(OCCCCCCCCNc4cccc5c4C(=O)N(C4CCC(=O)NC4=O)C5=O)cc3)CC[C@@H]12 (stereo partly drawn) [C25, N-(4-((8-((4-(2-(3-(2,6-dioxopiperidine))-isoindole-1,3-dione))amino)octyl)oxy)phenyl)-3-oxo-4-aza-5α-androst-1-ene-17β-carboxamide] | > 1 | > 1 | > 1 | – | – | –
C[C@]12C=CC(=O)N[C@@H]1CC[C@@H]1[C@@H]2CC[C@]2(C)[C@@H](C(=O)Nc3cccc(NCCNc4cccc5c4C(=O)N(C4CCC(=O)NC4=O)C5=O)c3)CC[C@@H]12 (stereo partly drawn) [C56, N-(3-((2-((4-(2-(3-(2,6-dioxopiperidine))-isoindole-1,3-dione))amino)ethyl)amino)phenyl)-3-oxo-4-aza-5α-androst-1-ene-17β-carboxamide] | > 1 | > 1 | > 1 | – | – | –
C[C@]12C=CC(=O)N[C@@H]1CC[C@@H]1[C@@H]2CC[C@]2(C)[C@@H](C(=O)Nc3cccc(N[C@@H]4CCC[C@@H](Nc5cccc6c5CN(C5CCC(=O)NC5=O)C6=O)C4)c3)CC[C@@H]12 (stereo partly drawn) [C62, N-(3-(N—(N-(4-(2-(3-(2,6-dioxopiperidine))-1-oxo-2,3-dihydro-1H-isoindol))-1R,3R-cyclohexanediamine))phenyl)-3-oxo-4-aza-5α-androst-1-ene-17β-carboxamide] | 0.01 to 1 | > 1 | > 1 | – | – | –
C[C@]12C=CC(=O)N[C@@H]1CC[C@@H]1[C@@H]2CC[C@]2(C)[C@@H](C(=O)Nc3ccc(Cl)c(OCCCNc4cccc5c4C(=O)N(C4CCC(=O)NC4=O)C5=O)c3)CC[C@@H]12 (stereo partly drawn) [C51, N-(3-((3-((4-(2-(3-(2,6-dioxopiperidine))-isoindole-1,3-dione))amino)propyl)oxy)-4-chloro-phenyl)-3-oxo-4-aza-5α-androst-1-ene-17β-carboxamide] | > 1 | > 1 | > 1 | – | – | –
C[C@]12C=CC(=O)N[C@@H]1CC[C@@H]1[C@@H]2CC[C@]2(C)[C@@H](C(=O)Nc3ccc(OCCCCCCNc4cccc5c4C(=O)N(C4CCC(=O)NC4=O)C5=O)cc3)CC[C@@H]12 (stereo partly drawn) [C21, N-(4-((6-((4-(2-(3-(2,6-dioxopiperidine))-isoindole-1,3-dione))amino)hexyl)oxy)phenyl)-3-oxo-4-aza-5α-androst-1-ene-17β-carboxamide] | > 1 | > 1 | > 1 | – | – | –
C[C@]12C=CC(=O)N[C@@H]1CC[C@@H]1[C@@H]2CC[C@]2(C)[C@@H](C(=O)Nc3cccc(OCCNc4ccc5c(c4)C(=O)N(C4CCC(=O)NC4=O)C5=O)c3)CC[C@@H]12 (stereo partly drawn) [C28, N-(3-((2-((5-(2-(3-(2,6-dioxopiperidine))-isoindole-1,3-dione))amino)ethyl)oxy)phenyl)-3-oxo-4-aza-5α-androst-1-ene-17β-carboxamide] | > 1 | > 1 | > 1 | – | – | –
C[C@]12C=CC(=O)N[C@@H]1CC[C@@H]1[C@@H]2CC[C@]2(C)[C@@H](C(=O)Nc3cccc(OCCCCCCCCNc4ccc5c(c4)C(=O)N(C4CCC(=O)NC4=O)C5=O)c3)CC[C@@H]12 (stereo partly drawn) [C40, N-(3-((8-((5-(2-(3-(2,6-dioxopiperidine))-isoindole-1,3-dione))amino)octyl)oxy)phenyl)-3-oxo-4-aza-5α-androst-1-ene-17β-carboxamide] | 0.01 to 1 | > 1 | > 1 | – | – | –
C[C@]12C=CC(=O)N[C@@H]1CC[C@@H]1[C@@H]2CC[C@]2(C)[C@@H](C(=O)Nc3cccc(N4CCC(CN5CCN(c6cccc7c6C(=O)N(C6CCC(=O)NC6=O)C7=O)CC5)CC4)c3)CC[C@@H]12 (stereo partly drawn) [C44, 1-(4-(1-(3-(3-oxo-4-aza-5α-androst-1-ene-17β-carboxamido)phenyl)piperidine))methyl-4-(4-(2-(3-(2,6-dioxopiperidine))-isoindole-1,3-dione))piperazine] | > 1 | > 1 | > 1 | – | – | –
N-(3-(N—(N-(4-(2-(3-(2,6-dioxopiperidine))-isoindole-1,3-dione))-(1R,4S)-bicyclo[2,2,1]heptane-2R,6R-diamine))phenyl)-3-oxo-4-aza-5α-androst-1-ene-17β-carboxamide and N-(3-(N—(N-(4-(2-(3-(2,6-dioxopiperidine))-isoindole-1,3-dione))-(1S,4R)-bicyclo[2,2,1]heptane-2R,6R-diamine))phenyl)-3-oxo-4-aza-5α-androst-1-ene-17β-carboxamide [C71] | – | – | – | 0.01 to 1 | > 1 | 0.01 to 1
C[C@]12C=CC(=O)N[C@@H]1CC[C@@H]1[C@@H]2CC[C@]2(C)[C@@H](C(=O)Nc3cccc(OCCCOc4cccc5c4C(=O)N(C4CCC(=O)NC4=O)C5=O)c3)CC[C@@H]12 (stereo partly drawn) [C46, N-(3-((3-((4-(2-(3-(2,6-dioxopiperidine))-isoindole-1,3-dione))oxy)propyl)oxy)phenyl)-3-oxo-4-aza-5α-androst-1-ene-17β-carboxamide] | 0.0001 to 0.01 | > 1 | 0.0001 to 0.01 | – | – | –
C[C@]12C=CC(=O)N[C@@H]1CC[C@@H]1[C@@H]2CC[C@]2(C)[C@@H](C(=O)Nc3cccc(N[C@@H]4CCC[C@@H](Nc5cccc6c5C(=O)N([C@@H]5CCC(=O)NC5=O)C6=O)C4)c3)CC[C@@H]12 [C64, N-(3-(N—(N-(4-(2-(3R-(2,6-dioxopiperidine))-isoindole-1,3-dione))-1R,3R-cyclohexanediamine))phenyl)-3-oxo-4-aza-5α-androst-1-ene-17β-carboxamide] | 0.0001 to 0.01 | 0.0001 to 0.01 | 0.0001 to 0.01 | – | – | –
C[C@]12C=CC(=O)N[C@@H]1CC[C@@H]1[C@@H]2CC[C@]2(C)[C@@H](C(=O)Nc3ccc(OCCCCCCCNc4ccc5c(c4)C(=O)N(C4CCC(=O)NC4=O)C5=O)cc3)CC[C@@H]12 (stereo partly drawn) [C24, N-(4-((7-((5-(2-(3-(2,6-dioxopiperidine))-isoindole-1,3-dione))amino)heptyl)oxy)phenyl)-3-oxo-4-aza-5α-androst-1-ene-17β-carboxamide] | > 1 | > 1 | > 1 | – | – | –
C[C@]12C=CC(=O)N[C@@H]1CC[C@@H]1[C@@H]2CC[C@]2(C)[C@@H](C(=O)Nc3cccc(OCCCCCCCNc4cccc5c4C(=O)N(C4CCC(=O)NC4=O)C5=O)c3)CC[C@@H]12 (stereo partly drawn) [C37, N-(3-((7-((4-(2-(3-(2,6-dioxopiperidine))-isoindole-1,3-dione))amino)heptyl)oxy)phenyl)-3-oxo-4-aza-5α-androst-1-ene-17β-carboxamide] | > 1 | > 1 | > 1 | – | – | –
